Laboratory results from patent US8431596B2 (Cancer Research Technology Limited, priority 2007, dated 2013).
Where “and” joins values, the source holds several entries; their conditions need not be identical. Equal entries are not always repeated.

Target: T1, AXL (human catalytic domain) (Homo sapiens, UniProt P30530)
T1 construct: purchased Upstate Ltd. 14-512
T1 sequence (P30530 473-894): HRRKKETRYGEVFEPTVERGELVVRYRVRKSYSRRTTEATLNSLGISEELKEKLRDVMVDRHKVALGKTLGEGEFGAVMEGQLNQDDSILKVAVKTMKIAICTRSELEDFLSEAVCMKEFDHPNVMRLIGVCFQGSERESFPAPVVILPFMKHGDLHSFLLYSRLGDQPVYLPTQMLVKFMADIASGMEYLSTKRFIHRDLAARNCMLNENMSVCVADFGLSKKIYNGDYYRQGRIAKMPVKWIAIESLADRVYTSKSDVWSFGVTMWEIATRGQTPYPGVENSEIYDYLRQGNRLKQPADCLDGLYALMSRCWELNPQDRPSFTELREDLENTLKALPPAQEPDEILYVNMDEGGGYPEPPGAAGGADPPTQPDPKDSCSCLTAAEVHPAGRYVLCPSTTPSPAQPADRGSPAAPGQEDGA
Experiment: AXL (human catalytic domain) Enzyme Activity Assay (IMAP fluorescence polarisation)
Type: biochemical
In short: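 Recombinant human AXL isoform 1 (aa473-894; final 15 nM) phosphorylated 100 nM fluorescein-CSK-tide with 150 μM ATP (KM) in HEPES pH 7.0/MgCl2/DTT buffer for 60 min at room temperature. IMAP fluorescence polarisation read after overnight binding; IC50 from 10-point 4-parameter logistic fits.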

[1] = further data set (WW-001 through WW-169, XX-001 through XX-469, YY-001 through YY-016, ZZ-001 through ZZ-003), 150 μM ATP
[2] = first data set, recombinant AXL isoform 1 aa473-894, 150 μM ATP

With `CN(CCN1CCCC1)c1ccc(Nc2nc3cccc(-c4ccc5c(c4)OCCO5)n3n2)cc1` [XX-154] the IC50 [1] was no more than 0.1 µM.

Work on `Cc1nc(C)c(CNc2cccc(-c3cccc4nc(Nc5ccc(OCCN6CCCC6)cc5)nn34)c2)s1` [XX-263] yielded an IC50 [1] of 0.1 to 1 µM.

For `COc1ccc(-c2cccc3nc(Nc4ccc(OCC(O)CN5CCOCC5)cc4)nn23)cc1` (stereo not drawn) [XX-410], the IC50 [1] was 0.1 to 1 µM.

Work on `Fc1ccc(-c2cccc3nc(Nc4ccc(OCCN5CCCC5)cc4)nn23)cc1Cl` [XX-282] yielded an IC50 [1] of 0.1 to 1 µM.

In the case of `COc1ccc(-c2cccc3nc(Nc4ccc(OCCN(C)CCO)cc4)nn23)cc1` [XX-065], the IC50 [2] is reported as less than 1 µM and the IC50 [1] is reported as no more than 0.1 µM.

Compound `c1cc(OCC2CCCO2)cc(-c2cccc3nc(Nc4ccc(OCCN5CCCC5)cc4)nn23)c1` (stereo not drawn) [XX-175, [4-(2-Pyrrolidin-1-yl-ethoxy)-phenyl]-{5-[3-(tetrahydro-furan-2-ylmethoxy)-phenyl]-[1,2,4]triazolo[1,5-a]pyridin-2-yl}-amine] has an IC50 [1] of 0.1 to 1 µM.

In the case of `CC(C)CS(=O)(=O)n1cc(-c2cccc3nc(Nc4ccc(OCCN5CCCC5)cc4)nn23)cn1` [XX-284], the IC50 [1] is reported as 0.1 to 1 µM.

`Cc1ccc(-c2cccc3nc(Nc4ccc(OCCN5CCCC5)cc4)nn23)cn1` [XX-204] was tested, and the IC50 [1] was 1 to 10 µM.

Compound `COc1ccc(-c2cccc3nc(NC(C)=O)nn23)cc1` [WW-039] has an IC50 [2] of 1 to 10 µM and an IC50 [1] of 1 to 10 µM.

With `NC(=O)c1ccc(-c2cccc3nc(NC(=O)C4CC4)nn23)cc1` [WW-019] the IC50 [2] was 1 to 10 µM and the IC50 [1] was 1 to 10 µM.

In the case of `Cc1cc(-c2cccc3nc(NC(=O)C4CC4)nn23)ccc1N(C)C` [WW-103], the IC50 [2] is reported as < 1 µM and 0.664 µM and the IC50 [1] is reported as 0.1 to 1 µM.

`CCS(=O)(=O)n1cc(-c2cccc3nc(Nc4ccc(OCCN5CCCC5)cc4)nn23)cn1` [XX-374] gave an IC50 [1] of no more than 0.1 µM.

In the case of `CCN(CC)CCCOc1ccc(Nc2nc3cccc(-c4ccc5c(c4)OCCO5)n3n2)cc1` [XX-329], the IC50 [1] is reported as 0.1 to 1 µM.

With `CNC(=O)COc1ccc(Nc2nc3cccc(-c4ccc(OC)cc4)n3n2)cc1` [XX-035] the IC50 [2] was 1 to 10 µM and the IC50 [1] was no more than 0.1 µM.

In the case of `CN1CCN(CCOc2ccc(Nc3nc4cccc(-c5ccc6c(c5)OCCO6)n4n3)cc2)CC1` [XX-077], the IC50 [2] is reported as less than 1 µM and the IC50 [1] is reported as no more than 0.1 µM.

`CC(=O)Nc1ccc(S(=O)(=O)Nc2ccc(-c3cccc4nc(Nc5ccc(OCCN6CCCC6)cc5)nn34)cc2)cc1` [XX-277] showed an IC50 [1] of 1 to 10 µM.

Compound `FC(F)(F)c1ccc(-c2cccc3nc(Nc4ccc(OCCN5CCCC5)cc4)nn23)cc1` [XX-218] has an IC50 [1] of 0.1 to 1 µM.

Compound `Oc1cccc(-c2cccc3nc(Nc4ccc(OCCN5CCCC5)cc4)nn23)c1` [XX-256, 3-{2-[4-(2-Pyrrolidin-1-yl-ethoxy)-phenylamino]-[1,2,4]triazolo[1,5-a]pyridin-5-yl}-phenol] has an IC50 [1] of 0.1 to 1 µM.

Work on `COc1ccc(-c2nccc3nc(Nc4ccc(C(=O)NCCN(C)C)cc4)nn23)cc1` [YY-004] yielded an IC50 [2] of less than 1 µM and an IC50 [1] of no more than 0.1 µM.

`Nc1ccc(-c2cccc3nc(Nc4ccc(OCCN5CCCC5)cc4)nn23)cc1` [XX-184] showed an IC50 [1] of 0.1 to 1 µM.

`COc1ccc(CNc2cccc3nc(NC(=O)C4CC4)nn23)cc1` [WW-167] was tested, and the IC50 [2] was 1 to 10 µM and the IC50 [1] was 1 to 10 µM.

In the case of `O=C(Cn1cc(-c2cccc3nc(Nc4ccc(OCCN5CCCC5)cc4)nn23)cn1)Nc1ccccc1` [XX-432], the IC50 [1] is reported as 0.1 to 1 µM.

With `c1csc(Cn2cc(-c3cccc4nc(Nc5ccc(OCCN6CCCC6)cc5)nn34)cn2)c1` [XX-275] the IC50 [1] was 0.1 to 1 µM.

Work on `Cn1nccc1CNc1cccc(-c2cccc3nc(Nc4ccc(OCCN5CCCC5)cc4)nn23)c1` [XX-396] yielded an IC50 [1] of no more than 0.1 µM.

`COCC(=O)Nc1nc2cccc(-c3ccc(OC)cc3)n2n1` [WW-041] was tested, and the IC50 [2] was 1 to 10 µM and the IC50 [1] was 1 to 10 µM.

Compound `COc1ccc(-c2cccc3nc(Nc4ccc(OCCNCCN(C)C)cc4)nn23)cc1` [XX-027] has an IC50 [2] of less than 1 µM and an IC50 [1] of 0.1 to 1 µM.

With `CCn1cc(-c2ccc(-c3cccc4nc(Nc5ccc(OCCN6CCCC6)cc5)nn34)cc2)cn1` [XX-191] the IC50 [1] was 0.1 to 1 µM.

For `Cn1nccc1-c1cccc(-c2cccc3nc(Nc4ccc(OCCN5CCCC5)cc4)nn23)c1` [XX-169], the IC50 [1] was 0.1 to 1 µM.

`CCCCNc1cccc2nc(NC(=O)C3CC3)nn12` [WW-073] was tested, and the IC50 [2] was 1 to 10 µM and the IC50 [1] was 1 to 10 µM.

`O=C(Nc1nc2cccc(-c3cccc(CO)c3)n2n1)C1CC1` [WW-028] gave an IC50 [2] of 1 to 10 µM and an IC50 [1] of 1 to 10 µM.
